Assay [1] has as its system PC3 cells. Put plainly: Cell proliferation by direct cell counting. The assay is classed as cell-based, human. The note with it: vs vehicle, Gamitrinib 5 μM, CCCP 12.5 μM, 2-DG 25 mM. As for the experimental part: Tumor cells were plated onto 96-well plates at 3.7×10^3/well and treated with vehicle or Gamitrinib (5 μM). After 24 h, cell viability was assessed with a 3 (4,5-dimethyl-thyazoyl-2-yl)2,5 diphenyltetrazolium bromide (MTT) colorimetric assay (24), or, alternatively, by Trypan blue exclusion and light microscopy. Data were background-subtracted relative to vehicle-treated cultures. In some experiments, tumor cell proliferation was assessed by direct cell counting and light microscopy.

Assay [2] has as its system PC3 cells. Put plainly: Lamella dynamics in live cells (SACED stroboscopic analysis). It counts as cell-based, human. The note with it: Gamitrinib 5 μM. On the procedure: Tumor cells growing at low confluency (3-5×10^4/well) on high optical quality 96 well μ-plates (Ibidi) were imaged with a 40× objective on a Nikon TE300 inverted time-lapse microscope equipped with a video system containing a Evolution QEi camera and a time-lapse video cassette recorder. All experiments were carried out in atmosphere-equilibrated environment at 37° C. and 5% CO2. Phase contrast images were captured at 0.5 sec intervals for 5 min (600 images=300 sec) and merged into sequence files using ImagePro Plus 7. Real time dynamics of a particular cellular region were quantified by Stroboscopic Analysis of Cell Dynamics (SACED) (55), with generation of digital steps from the first 120 sec (240 frames) of the sequence files imported into Image J software. A particular region of 16.2 μm×0.162 μm (“SACED line”) was selected in cells under analysis, duplicated and montaged in sequence to display the region over time in a stroboscopic image. […] Structures such as protruding lamellipodia and ruffles were manually labeled and the frequency of ruffles per min was calculated. Mean values were calculated from at least 15 cells from 4 separate wells. All experiments were repeated at least twice with different tumor cell types.

For assay [3], the system named is LN229 cells. Put plainly: Galactose challenge cell viability. It counts as cell-based, human. The conditions noted are these: Gamitrinib 5 μM. As for the experimental part:
Human glioblastoma LN229, prostate adenocarcinoma PC3 and PC3-ML subline, lung adenocarcinoma H1299, H1437, H460 and A549, breast adenocarcinoma MDA-MB-231, melanoma 1205Lu and WM793, or normal NIH3T3 and MRC-5 fibroblasts were obtained from the American Tissue Culture Collection (ATCC), and maintained in culture according to the supplier's specifications. For metabolic stress experiments, cells were incubated in MEM-based media containing glucose, essential and non-essential amino acids and vitamins in identical concentration as DMEM, plus 4 mM L-glutamine, 1 mM sodium pyruvate, 10 mM HEPES, and 10% 10 K dialyzed FBS (Gibco). Three conditions were tested: 25 mM glucose (complete medium), 5 mM glucose or 50% amino acid deprivation compared to DMEM. […]
Tumor cells were plated onto 96-well plates at 3.7×10^3/well and treated with vehicle or Gamitrinib (5 μM). After 24 h, cell viability was assessed with a 3 (4,5-dimethyl-thyazoyl-2-yl)2,5 diphenyltetrazolium bromide (MTT) colorimetric assay (24), or, alternatively, by Trypan blue exclusion and light microscopy. […] In some experiments, tumor cell proliferation was assessed by direct cell counting and light microscopy.

Assay [4] relates to PC3 cells. Briefly: Wound closure assay, tumor cells. The assay is classed as cell-based, human. The note with it: Gamitrinib 5 μM, 16 and 24 h.
For assay [5], the system named is Focal Adhesion Kinase (FAK). Briefly: Western blotting, FAK phosphorylation. It counts as cell-based, human. The conditions noted are these: tumor cells (PC3); Gamitrinib 5 μM, CCCP 12.5 μM, rapamycin 0.1 μM. As for the experimental part:
(§1) Protein lysates were prepared in RIPA buffer containing 150 mM NaCl, 1.0% Triton X-100, 0.5% sodium deoxycholate, 0.1% SDS, 50 mM Tris, pH 8.0, in the presence of EDTA-free protease inhibitor cocktail (Roche) and phosphatase inhibitor cocktail 2 and 3 (Sigma Aldrich). Equal amounts of protein lysates were separated by SDS gel electrophoresis, transferred to PVDF membranes and incubated with primary antibodies of various specificities. Protein bands were detected by chemiluminescence, as described (21).
(In general: Immunoblotting shows a protein as a band on a membrane.)

Assay [6] relates to PC3 cells. Briefly: Matrigel-coated transwell cell invasion. It counts as cell-based, human. The conditions noted are these: Gamitrinib 5 μM, 17-AAG 5 μM, CCCP 12.5 μM, 2-DG 25 mM, 16 h. As for the experimental part:
(§2) Various tumor cell types were treated as indicated in each experiment, suspended in 0.1% BSA/DMEM and seeded (1.6−3.2×10^3 cells/mm2, depending on the cell type) in the upper compartment of […] pore diameter BD transwells (BD). NIH3T3 conditioned medium was placed in the lower compartment as a chemoattractant. After 6-18 h incubations at 37° C., the transwell membranes were recovered and cells on the upper side (non-migratory) were wiped off the surface. Cells on the lower side of the membrane were fixed in methanol, rinsed in water and mounted on glass slides with Vectashield medium containing DAPI (Vector Laboratories). Migrated cells on each membrane were counted by fluorescence microscopy in 5 different fields. For cell invasion assays, transwell membranes were coated with Matrigel and processed as described above.

The test system of assay [7] is Akt or ERK. Put plainly: Western blotting, Akt or ERK phosphorylation. The assay is classed as cell-based, human. The note with it: Gamitrinib 5 μM. As for the experimental part: as §1
Assay [8] has as its system bone metastatic disease. The note with it: orthotopic xenograft models and genetic mouse models; cited from earlier work.
Assay [9] has as its system FIP200. Put plainly: FIP200 phosphoisotypes, phosphate-affinity SDS gel mobility shift. The assay is classed as cell-based, human. The conditions noted are these: PC3; Gamitrinib 5 μM. On the procedure:
Analysis of phosphoisotypes was carried out by standard phosphate-affinity SDS gel electrophoresis, using a mobility shift protocol (56). Briefly, proteins were separated by electrophoresis on 3% polyacrylamide/0.5% SeaKem Gold Agarose (Lonza) gels containing the dinuclear metal complex Mn2+-Phos-tag (Acrylamide-pendant Phos-tag, Wako Chemicals). After removal of Mn2+ by washing the gels in blotting buffer containing 1 mM EDTA, proteins were transferred to PVDF membranes and detected by Western blotting using antibodies to FIP200 or pan-phosphorylated Ser residues.

Assay [10] concerns PC3 cells. Put plainly: Transwell cell migration. It counts as cell-based, human. The conditions noted are these: Gamitrinib 5 μM, 17-AAG 5 μM, CCCP 12.5 μM, 2-DG 25 mM, rapamycin 0.1 μM, 6 h. As for the experimental part:
as §2

The subject of assay [11] is tumor cells. The conditions noted are these: previous data (23); cited from earlier work.
Assay [12] concerns tumor cells. Put plainly: F-actin staining (rhodamine-phalloidin), confocal microscopy. The conditions noted are these: Gamitrinib 5 μM; fluorescence microscopy. It counts as cell-based, human. On the procedure: Tumor cells growing at low confluency (1-2×10^4/well) on optical grade glass coverslips were treated with vehicle or Gamitrinib (5 μM), fixed in 4% formaldehyde for 15 min at 37° C., washed in PBS, pH 7.4, and permeabilized with 0.1% Triton X-100 for 5 min at 22° C. Slides were washed in PBS, pH 7.4, blocked in 1% BSA/PBS for 30 min, incubated with 1:2000 dilution of phalloidin-rhodamine (Molecular Probes) for 30 min, washed in PBS, pH 7.4, and mounted in Fluoromount G medium (Southern Biotech). Slides were analyzed on a Leica TCS SP2 confocal laser microscope with a 100× oil objective.

Data on one substance can be found in patent US20140271667A1, “Methods and Compositions for Neoadjuvant Therapy” (The Wistar Institute of Anatomy and Biology, priority 2013, published 2014).

Entries after “also recorded” stand apart in the source; their conditions may differ.

For Gamitrinib, the tumor cell proliferation entry in assay [1] is on record as “did not reduce tumor cell proliferation; also recorded: did not affect cell proliferation”. Also, the “ruffling frequency and retraction speed” value in assay [2] (PC3) was “profound inhibition”. Moreover, the cytoskeletal lamella dynamics entry in assay [2] (single cell time-lapse videomicroscopy) is “nearly complete loss”. Further, the “tumor cell viability in 100% galactose” value in [3] (0% Glc-100% Gal) is “nearly complete tumor cell death”. In assay [3] (100% glucose or 50% Glc-50% Gal), the “tumor cell viability in glucose or 50% galactose” value is reported as “did not significantly reduce tumor cell viability”. In assay [4], the “tumor cell migration in wound closure assay” value is recorded as “inhibited tumor cell migration”. The “FAK phosphorylation on Tyr397 and Tyr925” value in assay [5] was “loss of phosphorylation”. In addition, in assay [6], the tumor cell invasion entry was “suppressed”. The “Akt or ERK phosphorylation” value in assay [7] was “not affected”. In [8], the bone metastatic disease result is “inhibit bone metastatic disease”. For the same substance, the “FIP200 gel mobility (phosphorylation)” value in assay [9] is recorded as “gel mobility retardation, suggestive of increased phosphorylation”. In addition, the tumor cell migration result in [10] is recorded as “suppressed”. Further, the “O2 consumption in tumor cells” value in [11] is given as “inhibited O2 consumption”. Besides, the actin cytoskeletal assembly result in assay [12] is “suppressed actin cytoskeletal assembly”.
